According to US12360106B2, “Photochromic xanthene fluorophores and their utility in live-cell imaging beyond the diffraction limit” (HOWARD HUGHES MEDICAL INSTITUTE, priority 2017, dated 2025):

Assay: water solubility (comparative statement)
Assay type: physicochemical
Settings: compared to PC-JF549-NHS

## COCCOCCOCCOCCNC(=O)c1cc2ccc(N3C(=O)c4ccc(C(=O)ON5C(=O)CCC5=O)cc4C34c3ccc(N5CCC5)cc3[Si](C)(C)c3cc(N5CCC5)ccc34)cc2oc1=O [PC-JF646-PEG-NHS, 2,5-dioxopyrrolidin-1-yl 2′-(3-((2,5,8,11-tetraoxatridecan-13-yl)carbamoyl)-2-oxo-2H-chromen-7-yl)-3,7-di(azetidin-1-yl)-5,5-dimethyl-3′-oxo-5H-spiro[dibenzo[b,e]siline-10,1′-isoindoline]-6′-carboxylate]
  water solubility: better water solubility
